Experimental data as given in patent US20240051952A1, “HMOX1 INDUCERS” (Mitobridge Inc., priority 2019, published 2024).
Converted amounts (≈) assume the structure as drawn. Where a name gives a salt, the structure may show the parent alone.

Key:
Heme Oxygenase 1 (HO1) = experiment: PD study, HMOX1 protein levels in mouse plasma and liver (ELISA); format: in vivo; conditions: HMOX1 protein fold induction vs time-matched vehicle, 50 mpk oral; for Liver Protein (3 h) / Liver Protein (6 h): mouse liver; for Plasma Protein (3 h) / Plasma Protein (6 h): mouse plasma
Method: 9-10 week old male C57BL/6 mice were dosed orally with 50 mg/kg of vehicle or compound formulated in 5% w/v tween 80 and 0.5% methyl cellulose. At indicated time points (3 and 6 hours or or 4 and 8 hours post-dosing as shown in the results below), whole blood was collected, animal was sacrificed and liver was collected. Blood samples were transferred to vials containing 4 μL of 10% w/v EDTA, centrifuged at 6000 rpm for 8 in below 10° C. to obtain plasma. Samples were frozen and later processed for HMOX1 protein levels as indicated below:
HMOX 1 Protein Levels: Mouse Liver
Preparation of Homogenization/Lysis Buffer
The homogenization buffer was prepared according Table A.
Immediately prior to use, add DTT (ThermoScientific #R0861) to a final concentration of 5 mM and 100×Halt Protease & Phosphatase Inhibitor Cocktail (ThermoScientific #78440) to a final concentration of 1×.
Preparation of Mouse Liver Samples
Liver samples were crushed by mortar and pestle under freezing conditions. Pulverized tissue was transferred into pre-chilled bead ruptor OMNI tubes (OMNI International, Cat #19-628). 1 mL of homogenization buffer (+DTT and HALT) was added to pulverized tissue and tubes were placed on ice. Samples were loaded and run through bead ruptor at speed 5.64 m/s, for two 20 sec cycles with 10 sec dwell between cycles and samples were immediately returned to ice. All material was transferred to a new chilled 2 mL Eppendorf tube. Samples were centrifuged for 5 minutes at 2,000 rpm at 4° C. Supernatant was transferred to a fresh chilled 1.7 mL Eppendorf tube. Samples were centrifuged for 5 minutes at 2,000 rpm at 4° C. The supernatant, consisting of cytosol and microsomes, was transferred to a fresh chilled 1.7 mL Eppendorf tube. Samples were stored at −80° C. Microsome samples were quantitated using Pierce 660 Assay (ThermoFisher Cat #22660) with pre-diluted BSA standards (ThermoFisher Cat #23208) ranging from 125-2000 μg/mL. Each sample was diluted to 10ng/ul for an ELISA input of 0.5ug in 50ul.
Preparation of Assay Reagents
All assay reagents were provided in the Heme Oxygenase 1 (HO1) Mouse SimpleStep ELISA Kit (Abcam #ab204524). Prior to use, all reagents were equilibrated to room temperature. 1×Wash Buffer PT was prepared by diluting 10×Wash Buffer PT 1:10 with deionized water. Antibody cocktail was prepared by diluting the 10×Capture Antibody and 10×Detector Antibody to 1×in Antibody Diluent 5BI. Mouse heme oxygenase 1 protein standard was reconstituted using 500ul homogenization buffer (Table A), mixed and held at room temperature for 10 minutes prior to dilution. An eight point standard curve was generated by diluting the Stock Standard 1:2 for standard curve ranging from 10,000-156.3 pg/mL.
Heme Oxygenase 1 (HO1) Mouse SimpleStep ELISA
50ul of all samples and standards were added to appropriate wells in duplicate. 50ul of 1×Antibody Cocktail was added to each well. The plate was sealed with provided seal and incubated at room temperature on a plate shaker at 400 rpm. After one hour incubation, the Antibody Cocktail was aspirated and the wells were washed three times with 350ul 1×Wash Buffer PT, aspirating completely between each step. After the last wash was aspirated dry, 100ul TMB Substrate was added to each well and the plate was incubated in the dark at room temperature for 10 minutes on a plate shaker at 400 rpm. After the 10 minute incubation, 100ul of Stop Solution was added to each well. Plate was shaken at 400 rpm for 1 minute to mix. Softmax Pro 7.0.3 was used to read OD at 450 nm as well as for analysis.
Heme Oxygenase 1 Protein Levels in Mouse Plasma
All assay reagents were provided in the Heme Oxygenase 1 (HO1) Mouse SimpleStep ELISA Kit (Abcam #ab204524). 1×Wash Buffer PT was prepared by diluting 10×Wash Buffer PT 1:10 with deionized water. Antibody cocktail was prepared by diluting the 10×Capture Antibody and 10×Detector Antibody to 1×in Antibody Diluent 5BI. […]

FTH1 = FTH1 mRNA expression in HepG2 cells (Nanostring); format: cell-based, human; conditions: 24 hours treatment
Method: RNA Isolation and Quantification of Gene Expression
HepG2 cells were seeded at 250 k/well in 12-well tissue culture plates coated with collagen (collagen I, rat tail (thin plate coating); ENZO Life Sciences) for approximately 24 hours. The seeded cells were then treated with dose titration of the compound of Example 17 or dimethyl fumarate (DMF) (a Nrf2 activator; Fisher Scientific) via media change, with biological triplicates performed for each treatment. After approximately 24 hours of treatment, cells were visually inspected to confirm that no toxicity occurred with compound treatment. The treated cells were washed with PBS, aspirated, parafilmed and frozen at −80° C. prior to RNA isolation. RNA was isolated using Machery-Nagel isolation kit (NucleoSpin® RNA: catalog 740955.250) and then quantitated using ThermoFisher Nanodrop.
RNA was diluted for Nanostring gene expression analysis. The diluted RNA at an input of 200ng RNA was run on a Nanostring instrument, which was supported with nCounter® SPRINT Profiler System and nSolver4.0 Software, nCounter® SPRINT Cartridge, nCounter® SPRINT Reagent Pack, and nCounter© SPRINT Hybridization Buffer. Analysis was done manually using raw data obtained from nSolver4.0 Software. CLTC, POLR2A, RPL27 and TBP were used as reference genes for normalization. Data was graphed as fold change compared to DMSO treatment. […]

[1] = test system: Human Heme Oxygenase-1 (HMOX-1); experiment: ELISA assay to measure human heme oxygenase-1 (HMOX-1) in HepG2 lysate; format: cell-based; conditions: for Maximum Fold induction: fold change of human HMOX1 protein levels relative to DMSO control, HepG2; for EC50: human HMOX1 protein in HepG2 lysate, ELISA, * = average of 2 or more EC50 determinations, NA = Not Active
Method in brief: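 HO-1 protein quantified by chemiluminescent sandwich ELISA against a 2-fold standard series starting at 20 ng/ml. Samples were 1:20-diluted HepG2 lysates made in Triton X-100/EDTA buffer with protease inhibitors. Capture antibody coated at 8 μg/ml, detection antibody used at 200 ng/ml, room-temperature (20 °C) steps.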

Kinetic solubility = format: physicochemical; conditions: Dulbecco's phosphate buffered saline (DPBS), aqueous buffer, kinetic from dmso stock, DPBS pH 7.4, 25° C., 200 μM test compound
Method: 10 μL of 10 mM DMSO stock solution were aliquotted to 490 μL of DMSO solution and separately 490 μL of Dulbecco's phosphate buffer saline, DPBS, pH 7.4 solution in 1.2 mL 96-well plates in duplicate. Final concentration was 200 μM of the test compound. Samples were incubated at 25° C. with shaking at 200 rpm for 16 h. Samples were centrifuged at 3500 rpm for 20 min at 25° C., and supernatant was submitted for HPLC analysis.
Kinetic solubility was measured using the following equation: […]

[2] = PD study, liver compound concentration in mice; format: in vivo; conditions: mouse liver, 50 mpk oral

| Structure (SMILES) | Maximum Fold induction [1] | solubility at 16 h (Kinetic solubility) | further results |
| --- | --- | --- | --- |
| Cn1c(Nc2nc3ccc(OC(F)(F)F)cc3s2)nc2cc(C(=O)NCCOCCO)ccc21 [Comparator 1, 1-methyl-2-(6-trifluoromethoxy-benzothiazol-2-ylamino)-1H-benzoimidazole-5-carboxylic acid [2-(2-hydroxyethoxy)-ethyl]-amide, reference compound] |  |  | Liver Protein (3 h) (Heme Oxygenase 1 (HO1)): 1.6x; Liver Protein (6 h) (Heme Oxygenase 1 (HO1)): 3.2x; Plasma Protein (3 h) (Heme Oxygenase 1 (HO1)): 1.1x; Plasma Protein (6 h) (Heme Oxygenase 1 (HO1)): 1.3x |
| COC(=O)/C=C/C(=O)OC [DMF, dimethyl fumarate, reference compound] |  |  | FTH1 expression fold increase (FTH1): comparable fold increases |
| Cn1c(Nc2nc3c(s2)CC(C)(C)CC3)nc2cc(C(=O)NCCOCCO)ccc21 [Example 6, 2-((6,6-dimethyl-4,5,6,7-tetrahydrobenzo[d]thiazol-2-yl)amino)-N-(2-(2-hydroxyethoxy)ethyl)-1-methyl-1H-benzo[d]imidazole-5-carboxamide] | 41 | 8.1 µM (≈ 3.59 µg/mL) | EC50 [1]: 3000 nM |
| CC1CCc2nc(Nc3nc4cc(C(=O)NCCOCCO)ccc4n3C)sc2C1 (stereo not drawn) [Example 7, N-(2-(2-hydroxyethoxy)ethyl)-1-methyl-2-((6-methyl-4,5,6,7-tetrahydrobenzo[d]thiazol-2-yl)amino)-1H-benzo[d]imidazole-5-carboxamide] | 27 | 7.2 µM (≈ 3.09 µg/mL) | EC50 [1]: 2700 nM |
| COCCNC(=O)c1ccc2c(c1)nc(Nc1nc3c(s1)CCC3)n2C [Example 8, 2-((5,6-dihydro-4H-cyclopenta[d]thiazol-2-yl)amino)-N-(2-methoxyethyl)-1-methyl-1H-benzo[d]imidazole-5-carboxamide] | 5-8 | 6.9 µM (≈ 2.56 µg/mL) | EC50 [1]: 2500 nM |
| Cl.Cn1c(Nc2nc3c(s2)CNCC3)nc2cc(C(=O)NCCOCCO)ccc21 [Example 9, N-(2-(2-hydroxyethoxy)ethyl)-1-methyl-2-((4,5,6,7-tetrahydrothiazolo[5,4-c]pyridin-2-yl)amino)-1H-benzo[d]imidazole-5-carboxamide hydrochloride] | 2 | 2.8 µM |  |
| Cn1c(Nc2nc3cc(OC(F)(F)F)ccc3[nH]2)nc2cc(C(=O)O)ccc21 [Example 13, 1-methyl-2-((5-(trifluoromethoxy)-1H-benzo[d]imidazol-2-yl)amino)-1H-benzo[d]imidazole-5-carboxylic acid] | 6-27 |  | Liver Protein (3 h) (Heme Oxygenase 1 (HO1)): 1.8x; Liver Protein (6 h) (Heme Oxygenase 1 (HO1)): 1.2x; Plasma Protein (3 h) (Heme Oxygenase 1 (HO1)): 1.1x; Plasma Protein (6 h) (Heme Oxygenase 1 (HO1)): 0.8x |

Second part, led by results:

| Maximum Fold induction [1] | solubility at 16 h (Kinetic solubility) | Structure (SMILES) | further results |
| --- | --- | --- | --- |
| 18 | 3.5 µM (≈ 1.46 µg/mL) | Cn1c(Nc2nc3ccccc3o2)nc2cc(C(=O)NCCNC3=NCCN3)ccc21 [Example 22, 2-(benzo[d]oxazol-2-ylamino)-N-(2-((4,5-dihydro-1H-imidazol-2-yl)amino)ethyl)-1-methyl-1H-benzo[d]imidazole-5-carboxamide] |  |
| 9-14 |  | Cn1c(Nc2nc3ccc(OC(F)(F)F)cc3o2)nc2cc(C(=O)O)ccc21 [Example 44, 1-methyl-2-((6-(trifluoromethoxy)benzo[d]oxazol-2-yl)amino)-1H-benzo[d]imidazole-5-carboxylic acid] | Liver Protein (3 h) (Heme Oxygenase 1 (HO1)): 1.6x; Liver Protein (6 h) (Heme Oxygenase 1 (HO1)): 2.1x; Plasma Protein (3 h) (Heme Oxygenase 1 (HO1)): 1.0 x; Plasma Protein (6 h) (Heme Oxygenase 1 (HO1)): 1.1x; Liver Conc uM (3 h) ([2]; 3 h): 217 µM; Liver Conc uM (6 h) ([2]; 6 h): 162 µM |
| 24-70 |  | Cn1c(Nc2nc3ccc(N4CCCC4)cc3o2)nc2cc(C(=O)NCCOCCO)ccc21 [Example 137, N-(2-(2-hydroxyethoxy)ethyl)-1-methyl-2-((6-(pyrrolidin-1-yl)benzo[d]oxazol-2-yl)amino)-1H-benzo[d]imidazole-5-carboxamide] |  |
| 20 |  | Cn1c(Nc2nc3ccc(OC4CCOCC4)cc3o2)nc2cc(C(=O)NCCOCCO)ccc21 [Example 138, N-(2-(2-hydroxyethoxy)ethyl)-1-methyl-2-((6-((tetrahydro-2H-pyran-4-yl)oxy)benzo[d]oxazol-2-yl)amino)-1H-benzo[d]imidazole-5-carboxamide] |  |
| 21 |  | Cn1c(Nc2nc3ccccc3o2)nc2cc(C(=O)C(F)(F)F)ccc21 [Example 139, 1-(2-(benzo[d]oxazol-2-ylamino)-1-methyl-1H-benzo[d]imidazol-5-yl)-2,2,2-trifluoroethan-1-one] |  |
| 19 |  | Cn1c(Nc2nc3ccccc3o2)nc2cc(/C(=N/O)C(F)(F)F)ccc21 [Example 140, (Z)-1-(2-(benzo[d]oxazol-2-ylamino)-1-methyl-1H-benzo[d]imidazol-5-yl)-2,2,2-trifluoroethan-1-one oxime] |  |
| 22 |  | Cn1c(Nc2nc3ccccc3o2)nc2cc(C(N)C(F)(F)F)ccc21 (stereo not drawn) [Example 141, N-(5-(1-amino-2,2,2-trifluoroethyl)-1-methyl-1H-benzo[d]imidazol-2-yl)benzo[d]oxazol-2-amine] |  |
| 27 |  | Cn1c(Nc2nc3ccccc3o2)nc2cc(C(O)C(F)(F)F)ccc21 (stereo not drawn) [Example 142, 1-(2-(benzo[d]oxazol-2-ylamino)-1-methyl-1H-benzo[d]imidazol-5-yl)-2,2,2-trifluoroethan-1-ol] |  |
